As usually defined, the IC50 is the concentration needed to halve the response being measured.

Results on 25 compounds are retold here after patent US9617237B2, “Partially saturated tricyclic compounds and methods of making and using same” (Zafgen, Inc., priority 2011, dated 2017).

The structures appear in SMILES notation.

For this assay, the target named is T1, recombinant human MetAP2 (Homo sapiens, UniProt P50579).
T1 construct: made in house; host or cells: Sf9 insect cells
As to the kind of experiment: Inhibition of recombinant human MetAP2 activity (fluorescence, MAS substrate, amino acid oxidase/Amplex red). The format is biochemical. Conditions: manganese enzyme; 0.75 mM Methionine-Alanine-Serine (MAS) substrate; 30 minutes at 25° C.; pH 7.5; 1% DMSO. As to the method:
Compounds are tested for their capacity to inhibit recombinant human MetAP2 activity using the following assay.
Human recombinant MetAP2 expressed in Sf9 cells followed by affinity purification and EDTA treatment to remove endogenous active site cation was dialysed against MnCl2 to produce the manganese enzyme used in the assay. The assay was carried out for 30 minutes at 25° C. in 50 mM HEPES buffer containing 100 mM NaCl, pH 7.5 the presence of 0.75 mM Methionine-Alanine-Serine (MAS) substrate and 50 μg/ml amino acid oxidase using a dilution of purified MetAP2 giving >3-fold signal: noise. Cleavage of the substrate by MetAP2 and oxidation of free methionine by amino acid oxidase was detected and quantified using fluorescence generated by Amplex red (10-acetyl-3,7-dihydroxyphenoxazine) in combination with horseradish peroxidase which detects H2O2 released during the oxidation step. The fluorescent signal was detected using a multiwell fluorimeter. Compounds were diluted in DMSO prior to addition to assay buffer, the final DMSO concentration in the assay being 1%.
IC50 values are calculated using the XLfit software package (version 2.0.5).

T1 sequence (P50579 whole entry): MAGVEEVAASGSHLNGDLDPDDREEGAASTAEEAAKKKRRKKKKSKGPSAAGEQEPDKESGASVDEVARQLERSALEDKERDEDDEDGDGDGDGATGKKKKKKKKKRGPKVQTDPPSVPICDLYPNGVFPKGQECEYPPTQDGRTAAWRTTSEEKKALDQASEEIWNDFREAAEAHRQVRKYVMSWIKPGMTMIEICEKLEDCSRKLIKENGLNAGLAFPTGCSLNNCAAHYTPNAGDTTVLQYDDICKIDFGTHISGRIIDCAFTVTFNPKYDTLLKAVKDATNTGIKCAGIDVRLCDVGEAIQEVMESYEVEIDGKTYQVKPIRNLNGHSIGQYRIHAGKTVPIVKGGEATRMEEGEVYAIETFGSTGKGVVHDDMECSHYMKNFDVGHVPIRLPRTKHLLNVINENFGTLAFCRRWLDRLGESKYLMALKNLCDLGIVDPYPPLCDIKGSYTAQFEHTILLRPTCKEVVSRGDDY

Turning to `CN(C)CCCCNc1cc(F)ccc1S(=O)(=O)Nc1ccc2c(c1C(=O)O)OC[C@@H]1C[C@H]21` (racemic) [(1aRS,7bSR)-5-[2-(4-Dimethylaminobutylamino)-4-fluoro-benzenesulfonyl-amino]-1,1a,2,7b-tetrahydrocyclopropa-[c]chromene-4-carboxylic acid], the IC50 lay within 50 to 500 nM.

Consider `CCN(CC)CCCc1cc(F)ccc1S(=O)(=O)Nc1ccc2c(c1C(=O)O)OC[C@H]1OCC[C@@H]21` (racemic) [Cis-(3aRS,9bRS)-7-[2-(3-Diethylaminopropyl)-4-fluorobenzenesulfonyl-amino]-1,3a,4,9b-tetrahydro-2H-furo[2,3-c]chromene-6-carboxylic acid], for which the IC50 was in the range of 50 to 500 nM.

For `CCN1CC[C@@H](CNc2ccccc2S(=O)(=O)Nc2ccc3c(c2C(=O)O)OC[C@@H]2C[C@H]32)C1` (mixture of isomers) [(1aRS,7bSR)-5-{2-[((S)-1-Ethylpyrrolidin-3-ylmethyl)amino]-benzenesulfonylamino}-1,1a,2,7b-tetrahydrocyclopropa-[c]chromene-4-carboxylic acid], the IC50 lay within 50 to 500 nM.

As to `O=C(O)c1c(NS(=O)(=O)c2ccccc2N[C@@H]2CN3CCC2CC3)ccc2c1OCC1CC21` (mixture of isomers) [(1aRS,7bSR)-5-{2-[((S)-1-Azabicyclo[2.2.2]oct-3-yl)amino]benzenesulfonyl-amino}-1,1a,2,7b-tetrahydrocyclopropa[c]chromene-4-carboxylic acid], the half-inhibitory concentration (IC50) was in the range of 50 to 500 nM.

For `O=C(O)c1c(NS(=O)(=O)c2ccccc2)ccc2c1OC[C@H]1OCC[C@@H]21` (racemic) [Cis-(3aRS,9bRS)-7-(Benzenesulfonylamino)-1,3a,4,9b-tetrahydro-2H-furo[2,3-c]chromene-6-carboxylic acid], the IC50 lay within 50 to 500 nM.

In the case of `CCN1CC[C@@H](CCNc2ccccc2S(=O)(=O)Nc2ccc3c(c2C(=O)O)OC[C@@H]2C[C@H]32)C1` (mixture of isomers) [(1aRS,7bSR)-5-{2-[2-((R)-1-Ethylpyrrolidin-3-yl)ethylamino]-benzenesulfonylamino}-1,1a,2,7b-tetrahydrocyclopropa-[c]chromene-4-carboxylic acid], the IC50 fell in the range of 50 to 500 nM.

For `CCN1CC[C@H](Cc2cc(F)ccc2S(=O)(=O)Nc2ccc3c(c2C(=O)O)OC[C@@H]2C[C@H]32)C1` (mixture of isomers) [(1aRS,7bSR)-5-[2-((S)-1-Ethyl-pyrrolidin-3-ylmethyl)-4-fluorobenzenesulfonyl-amino]-1,1a,2,7b-tetrahydrocyclopropa[c]chromene-4-carboxylic acid], the IC50 was 50 to 500 nM.

With `CN(C)CCCNc1ccccc1S(=O)(=O)Nc1ccc2c(c1C(=O)O)OC[C@@H]1C[C@H]21` (racemic) [(1aRS,7bSR)-5-[2-(3-Dimethylaminopropylamino)benzene-sulfonylamino]-1,1a,2,7b-tetrahydrocyclopropa[c]chromene-4-carboxylic acid], the IC50 is < 50 nM.

Take `CCN1CCCC(Cc2cc(F)ccc2S(=O)(=O)Nc2ccc3c(c2C(=O)O)OC[C@@H]2C[C@H]32)C1` (stereo partly drawn) [(1aR,7bS)-5-[2-(1-Ethylpiperidin-3-ylmethyl)-4-fluorobenzene-sulfonylamino]-1,1a,2,7b-tetrahydrocyclopropa[c]chromene-4-carboxylic acid]: the IC50 was 50 to 500 nM.

Take `CN(C)CCCCNc1ccccc1S(=O)(=O)Nc1ccc2c(c1C(=O)O)OC[C@H]1OCC[C@@H]21` (racemic) [Cis-(3aRS,9bRS)-7-[2-(4-dimethylamino-butylamino)-benzenesulfonylamino]-1,3a,4,9b-tetrahydro-2H-furo[2,3-c]chromene-6-carboxylic acid]: the IC50 fell in the range of 50 to 500 nM.

For `CCNC/C=C\c1cc(F)ccc1S(=O)(=O)Nc1ccc2c(c1C(=O)O)OC[C@@H]1C[C@H]21` (racemic) [(1aRS,7bSR)-5-[2((Z)-3-Ethylaminoprop-1-enyl)-4-fluoro-benzenesulfonylamino]-1,1a,2,7b-tetrahydrocyclopropa-[c]chromene-4-carboxylic acid], the half-maximal inhibitory concentration (IC50) is < 50 nM.

On to `CCN1CC(CCc2cc(F)ccc2S(=O)(=O)Nc2ccc3c(c2C(=O)O)OC[C@@H]2C[C@H]32)C1` (racemic) [(1aRS,7bSR)-5-{2-[2-(1-Ethylazetidin-3-yl)ethyl]-4-fluoro-benzenesulfonyl-amino}-1,1a,2,7b-tetrahydrocyclopropa-[c]chromene-4-carboxylic acid], for which the IC50 fell in the range of 50 to 500 nM.

Consider `CCN(CC)CC/C=C\c1cc(F)ccc1S(=O)(=O)Nc1ccc2c(c1C(=O)O)OCC1CC21` (single isomer, unassigned) [(1aRS,7bSR)-5-[2((Z)-4-diethylaminobut-1-enyl)-4-fluorobenzenesulfonyl-amino]-1,1a,2,7b-tetrahydrocyclopropa[c]chromene-4-carboxylic acid], for which the IC50 was 50 to 500 nM.

For the compound `CCN(CC)CCCc1cc(F)ccc1S(=O)(=O)Nc1ccc2c(c1C(=O)O)OC[C@@H]1C[C@H]21` [(1aR,7bS)-5-[2-(3-Diethylaminopropyl)-4-fluorobenzenesulfonyl-amino]-1,1a,2,7b-tetrahydrocyclopropa[c]chromene-4-carboxylic acid], the IC50 was < 50 nM.

Take `O=C(O)c1c(NS(=O)(=O)c2ccc(F)cc2CCCN2CCC2)ccc2c1OCC1CC21` (stereo not drawn) [(1aRS,7bSR)-5-{2[(Z)-3-(Azetidin-1-yl)propyl]-4-fluorobenzenesulfonylamino}-1,1a,2,7b-tetrahydrocyclopropa[c]chromene-4-carboxylic acid]: the IC50 is 50 to 500 nM.

For the compound `CCN1CCC(Cc2cc(F)ccc2S(=O)(=O)Nc2ccc3c(c2C(=O)O)OC[C@@H]2C[C@H]32)CC1` (racemic) [(1aRS,7bSR)-5-[2-(1-Ethylpiperidin-4-ylmethyl)-4-fluoro-benzenesulfonylamino]-1,1a,2,7b-tetrahydrocyclopropa-[c]chromene-4-carboxylic acid], the IC50 is < 50 nM.

Take `CN(C)CCCCCNc1ccccc1S(=O)(=O)Nc1ccc2c(c1C(=O)O)OC[C@@H]1C[C@H]21` (racemic) [(1aRS,7bSR)-5-[2-(5-Dimethylaminopentylamino)benzene-sulfonylamino]-1,1a,2,7b-tetrahydrocyclopropa[c]chromene-4-carboxylic acid]: the IC50 was < 50 nM.

On to `CCN1CC[C@@H](NCCc2cc(F)ccc2S(=O)(=O)Nc2ccc3c(c2C(=O)O)OC[C@@H]2C[C@H]32)C1` (mixture of isomers) [(1aRS,7bSR)-5-{2-[2-((R)-1-Ethylpyrrolidin-3-ylamino)ethyl]-4-fluoro-benzenesulfonylamino}-1,1a,2,7b-tetrahydrocyclopropa-[c]chromene-4-carboxylic acid], for which the IC50 is 50 to 500 nM.

`CCN(CC)C/C=C\c1cc(F)ccc1S(=O)(=O)Nc1ccc2c(c1C(=O)O)NC[C@H]1OCC[C@@H]21` (racemic) [Cis-(3aRS,9bRS)-7-[2-((Z)-3-Diethylaminoprop-1-enyl)-4-fluorobenzenesulfonylamino]-1,2,3a,4,5,9b-hexahydrofuro[2,3-c]quinoline-6-carboxylic acid]: the IC50 is < 50 nM.

In the case of `CCN(CC)C/C=C\c1cc(F)ccc1S(=O)(=O)Nc1ccc2c(c1C(=O)O)OC[C@H]1OCC[C@@H]21` (racemic) [Cis-(3aRS,9bRS)-7-[2-((Z)-3-Diethylaminoprop-1-enyl)-4-fluoro-benzenesulfonylamino]-1,3a,4,9b-tetrahydro-2H-furo[2,3-c]chromene-6-carboxylic acid], the IC50 was < 50 nM.

As for `CCN1CCN(CCc2cc(F)ccc2S(=O)(=O)Nc2ccc3c(c2C(=O)O)OC[C@@H]2C[C@H]32)CC1` (racemic) [(1aRS,7bSR)-5-{2-[2-(4-Ethylpiperazin-1-yl)-ethyl]-4-fluorobenzenesulfonylamino}-1,1a,2,7b-tetrahydrocyclopropa[c]chromene-4-carboxylic acid], the IC50 lay within 50 to 500 nM.

On to `CN(C)CCCCN(C)c1ccccc1S(=O)(=O)Nc1ccc2c(c1C(=O)O)OC[C@@H]1C[C@H]21` (racemic) [(1aRS,7bSR)-5-{2-[N-(4-Dimethylaminobutyl)-N-methylamino]-benzenesulfonyl-amino}-1,1a,2,7b-tetrahydrocyclopropa-[c]chromene-4-carboxylic acid], for which the IC50 was > 500 nM.

`CCN1CC[C@H](C(=O)NCc2cc(F)ccc2S(=O)(=O)Nc2ccc3c(c2C(=O)O)OCC2CC32)C1` (mixture of isomers) [(1aRS,7bSR)-5-(2-{[((S)-1-ethylpyrrolidine-3-carbonyl)amino]methyl}-4-fluoro-benzenesulfonylamino)-1,1a,2,7b-tetrahydrocyclopropa[c]chromene-4-carboxylic acid]: the IC50 was in the range of 50 to 500 nM.

In the case of `CN(C)CCCC(=O)Nc1cc(F)ccc1S(=O)(=O)Nc1ccc2c(c1C(=O)O)OC[C@@H]1C[C@H]21` (racemic) [(1aRS,7bSR)-5-[2-(4-Dimethylaminobutyrylamino)-4-fluorobenzenesulfonyl-amino]-1,1a,2,7b-tetrahydrocyclopropa-[c]chromene-4-carboxylic acid], the IC50 was 50 to 500 nM.

With `O=C(O)c1c(NS(=O)(=O)c2ccc(F)cc2CCCN2CCCC2)ccc2c1OC[C@H]1OCC[C@@H]21` (racemic) [Cis-(3aRS,9bRS)-7-[2-(3-{Pyrrolidin-1-yl}propyl)-4-fluorobenzene-sulfonylamino]-1,3a,4,9b-tetrahydro-2H-furo[2,3-c]chromene-6-carboxylic acid], the IC50 was < 50 nM.
